This is an account of results in patent US8809372B2, “Pyridine derivatives” (Endo Pharmaceuticals, Inc., priority 2011, dated 2014).

The target of this assay is T1, rat CYP17 (rat testicular microsomes) (Rattus norvegicus, UniProt P11715).
T1 construct: Rat testis tissue was collected and disrupted with 30 strokes of a glass homogenizer; from tissue; host or cells: rat testis (microsomes)
T1 sequence (P11715 1-507): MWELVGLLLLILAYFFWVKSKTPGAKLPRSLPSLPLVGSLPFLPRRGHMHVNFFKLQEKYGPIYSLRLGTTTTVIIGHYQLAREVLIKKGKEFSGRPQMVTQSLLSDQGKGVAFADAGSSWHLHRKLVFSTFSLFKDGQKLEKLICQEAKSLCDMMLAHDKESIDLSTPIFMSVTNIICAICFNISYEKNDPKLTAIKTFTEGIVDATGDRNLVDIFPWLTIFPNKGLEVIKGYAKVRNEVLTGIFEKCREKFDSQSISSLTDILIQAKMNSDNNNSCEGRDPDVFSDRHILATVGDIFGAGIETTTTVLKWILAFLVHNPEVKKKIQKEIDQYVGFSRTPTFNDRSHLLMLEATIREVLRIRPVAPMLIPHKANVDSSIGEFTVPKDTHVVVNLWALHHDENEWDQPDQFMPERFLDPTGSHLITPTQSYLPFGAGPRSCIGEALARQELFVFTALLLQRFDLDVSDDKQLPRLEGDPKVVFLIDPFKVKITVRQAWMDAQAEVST
Briefly: CYP17 inhibition assay in rat testicular microsomes. The class given is biochemical. In outline:
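Rat testicular microsomes (150–160 μg) or yeast microsomes expressing human CYP17 (1.7 pmol) react with ³H-17α-hydroxypregnenolone (1 μCi/reaction) and 325 μM NADPH in potassium phosphate buffer, pH 7.4. Compound is pre-incubated with substrate for 15 min, then the reaction runs 60 min at 37 °C. After chloroform extraction and charcoal treatment, aqueous radioactivity is measured by scintillation counting.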

Structures are written as SMILES. Some results are limits rather than exact numbers.

As usually defined, the IC50 is the midpoint of a concentration-inhibition curve. A higher IC50 goes with weaker potency. Consider `COc1ccc(-c2ccc(C(C)(O)c3ccncc3)nc2)cc1` (single isomer, unassigned) [Example 3, 1-(5-(4-methoxyphenyl)-pyridin-2-yl)-1-(pyridin-4-yl)ethanol], for which the IC50 is 50 to 200 nM.
The value for `Cn1cc(-c2ccc(C(C)(O)c3ccncc3)s2)ccc1=O` (stereo not drawn) [Example 15, 5-(5-(1-Hydroxy-1-(pyridin-4-yl)ethyl)thiophen-2-yl)-1-methyl-pyridin-2(1H)-one] was less than 50 nM; that for `CC(O)(c1ccncc1)c1cnc(-c2ccc(F)cc2)s1` (racemic) [Example 7, 1-(2-(4-Fluorophenyl)thiazol-5-yl)-1-(pyridin-4-yl)ethanol] was less than 50 nM.
`COc1ccc(-c2ccc(C(C)(O)c3ccncc3)nc2)cc1` (single isomer, unassigned) [Example 2, 1-(5-(4-methoxyphenyl)-pyridin-2-yl)-1-(pyridin-4-yl)ethanol]: the IC50 is less than 50 nM.
For `CCC(O)(c1ccncc1)c1cnc(-c2ccc(F)cc2)s1` (stereo not drawn) [Example 4, 1-(2-(4-fluorophenyl)-thiazol-5-yl)-1-(pyridin-4-yl)propan-1-ol] the value was less than 50 nM.
For `CC(O)(c1ccncc1)c1ncc(-c2ccc(F)cc2)s1` (stereo not drawn) [Example 14, 1-(5-(4-Fluorophenyl)thiazol-2-yl)-1-(pyridin-4-yl)ethanol] the value was less than 50 nM.
The value for `COc1ccc(-c2ccc(C(C)(O)c3ccncc3)nc2)cc1` (racemic) [Example 1, 1-(5-(4-Methoxyphenyl)pyridin-2-yl)-1-(pyridin-4-yl)ethanol] was less than 50 nM.
In the case of `CC(O)(c1ccncc1)c1cnc(-c2ccc(F)cc2)s1` (single isomer, unassigned) [Example 8, 1-(2-(4-fluorophenyl)thiazol-5-yl)-1-(pyridin-4-yl)ethanol], the IC50 is less than 50 nM.
The value for `CC(O)(c1ccncc1)c1nc(-c2ccc(F)cc2)no1` (single isomer, unassigned; (+)) [Example 36, (+)-1-(3-(4-fluoro-phenyl)-1,2,4-oxadiazol-5-yl)-1-(pyridin-4-yl)ethanol] was less than 50 nM; that for `Cn1cc(-c2ccc(C(C)(O)c3ccncc3)s2)ccc1=O` (single isomer, unassigned; (-)) [Example 17, (−)-5-(5-(1-hydroxy-1-(pyridin-4-yl)ethyl)thiophen-2-yl)-1-methylpyridin-2(1H)-one] was less than 50 nM.
As for `CC(O)(c1ccncc1)c1nc(-c2ccc(F)cc2)no1` (stereo not drawn) [Example 34, 1-(3-(4-Fluorophenyl)-1,2,4-oxadiazol-5-yl)-1-(pyridin-4-yl)ethanol], the IC50 was less than 50 nM.
As for `CC(O)(c1ccncc1)c1cnc(-c2ccc(F)cc2)s1` (single isomer, unassigned) [Example 9, 1-(2-(4-fluorophenyl)thiazol-5-yl)-1-(pyridin-4-yl)ethanol], the IC50 was less than 50 nM.
